According to patent US20160362432A1 (priority 2014, published 2016):

Biological target: T1, Human factor D (Homo sapiens, UniProt P00746)
T1 construct: purified from human serum; purchased Complement Technology, Inc; host or cells: human serum (natural source)
Assay: biochemical

T1 sequence (P00746 26-253): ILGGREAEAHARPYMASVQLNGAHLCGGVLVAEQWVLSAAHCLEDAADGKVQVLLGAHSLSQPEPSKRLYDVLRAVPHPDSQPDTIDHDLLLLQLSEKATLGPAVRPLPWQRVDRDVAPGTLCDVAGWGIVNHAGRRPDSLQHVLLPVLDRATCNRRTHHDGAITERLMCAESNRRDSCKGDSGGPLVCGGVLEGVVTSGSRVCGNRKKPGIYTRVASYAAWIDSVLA

CCOP(=O)(OCC)c1ccc2c(C(C)=O)cn(CC(=O)N3[C@@H]4CCC[C@@H]4C[C@H]3C(=O)NCc3cccc(Cl)c3F)c2c1 [Compound 5, diethyl 3-acetyl-1-(2-((2S,3aR,6aR)-2-(3-chloro-2-fluorobenzylcarbamoyl)hexahydrocyclopenta [b]pyrrol-1(2H)-yl)-2-oxoethyl)-1H-indol-6-ylphosphonate]
IC50: 1 to 10 µM
